{"source": "PubChem BioAssay AID652149", "about": "(Molecular Libraries Program, Specialized Chemistry Center, …, 2013)", "molecular_target": "Breakpoint cluster region protein (Homo sapiens) (UniProt P11274)", "sequence (P11274 whole entry, looked up)": "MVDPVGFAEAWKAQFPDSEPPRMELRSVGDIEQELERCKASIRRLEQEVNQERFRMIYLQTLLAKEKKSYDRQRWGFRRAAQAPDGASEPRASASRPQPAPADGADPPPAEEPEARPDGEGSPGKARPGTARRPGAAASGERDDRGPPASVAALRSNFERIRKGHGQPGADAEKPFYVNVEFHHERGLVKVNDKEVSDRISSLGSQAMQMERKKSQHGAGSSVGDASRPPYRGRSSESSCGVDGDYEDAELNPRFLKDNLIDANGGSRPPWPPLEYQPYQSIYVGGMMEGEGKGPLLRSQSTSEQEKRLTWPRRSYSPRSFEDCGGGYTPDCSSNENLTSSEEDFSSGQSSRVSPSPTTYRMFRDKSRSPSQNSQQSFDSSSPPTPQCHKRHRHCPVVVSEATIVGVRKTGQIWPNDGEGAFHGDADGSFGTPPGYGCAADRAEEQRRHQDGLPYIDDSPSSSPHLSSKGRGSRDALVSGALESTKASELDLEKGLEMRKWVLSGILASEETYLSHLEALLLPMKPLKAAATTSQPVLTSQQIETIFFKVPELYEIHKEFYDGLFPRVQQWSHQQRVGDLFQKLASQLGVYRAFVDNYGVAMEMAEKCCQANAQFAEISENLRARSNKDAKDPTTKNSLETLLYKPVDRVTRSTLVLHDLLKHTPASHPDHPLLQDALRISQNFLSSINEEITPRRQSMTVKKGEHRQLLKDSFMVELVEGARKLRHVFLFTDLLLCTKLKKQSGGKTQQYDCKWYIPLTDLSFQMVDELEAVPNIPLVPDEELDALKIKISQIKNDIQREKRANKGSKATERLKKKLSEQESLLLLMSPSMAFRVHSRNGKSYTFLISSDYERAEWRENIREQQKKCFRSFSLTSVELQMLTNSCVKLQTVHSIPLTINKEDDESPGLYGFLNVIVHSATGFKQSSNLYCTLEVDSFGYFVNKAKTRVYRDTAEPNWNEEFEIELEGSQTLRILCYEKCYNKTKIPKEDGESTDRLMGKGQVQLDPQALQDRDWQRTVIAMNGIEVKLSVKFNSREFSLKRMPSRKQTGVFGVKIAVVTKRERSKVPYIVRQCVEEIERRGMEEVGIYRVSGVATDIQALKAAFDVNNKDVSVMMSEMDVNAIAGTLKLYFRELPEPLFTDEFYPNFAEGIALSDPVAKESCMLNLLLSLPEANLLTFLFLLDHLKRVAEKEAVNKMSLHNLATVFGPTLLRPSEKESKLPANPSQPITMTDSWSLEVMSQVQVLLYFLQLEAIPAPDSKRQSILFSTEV", "experiment": "dose-response of breakpoint cluster region GAP-domain inhibitors, specificity screen for MgcRacGAP inhibitor effort, cell-free enzymatic, Rac1 GTPase, Biomol Green phosphate measurement (AID 652149)", "details": "BCR GAP/Rac1 GTPase, Biomol green phosphate absorbance; for inhibition: at 100 µM (top of the series)", "note": "Calls of active or inactive are those of the source. How the calls were made is not given here.", "data": [{"smiles": "Nc1ccc(OCc2ccco2)cc1", "values": [{"measurement": "IC50", "result": 20.6, "unit": "µM"}]}, {"smiles": "COc1ccc(/C=N/Nc2cc(C)nc3ccc(OC)cc23)c(OC)c1", "values": [{"measurement": "IC50", "result": 18.4, "unit": "µM"}]}, {"smiles": "CSc1nc(N)c(N=Nc2ccc([As](=O)(O)O)cc2)c(=O)[nH]1", "values": [{"measurement": "IC50", "result": 5.86, "unit": "µM"}]}, {"smiles": "Cc1ccc(C)c(-n2sc3ccc(F)cc3c2=O)c1", "values": [{"measurement": "IC50", "result": 7.31, "unit": "µM"}]}, {"smiles": "CC1OC(CC(=O)O)CC2=C1C(=O)c1c(O)cccc1C2=O", "note": "(stereo unspecified)", "values": [{"measurement": "IC50", "result": 13.2, "unit": "µM"}]}, {"smiles": "CC(=O)Nc1ccc2sn(-c3ccccc3)c(=O)c2c1", "values": [{"measurement": "IC50", "result": 27.4, "unit": "µM"}]}, {"smiles": "Cc1cc(C)c2c(=N)c3ccccc3n(CCCCCCCCn3c4ccccc4c(=N)c4c(C)cc(C)nc43)c2n1", "values": [{"measurement": "IC50", "result": 18, "unit": "µM"}]}, {"smiles": "COc1ccc(-n2sc3ccccc3c2=O)cc1", "values": [{"measurement": "IC50", "result": 13.3, "unit": "µM"}]}, {"smiles": "O=c1c2ccccc2sn1-c1ccc(Cl)cc1", "values": [{"measurement": "IC50", "result": 4.44, "unit": "µM"}]}, {"smiles": "CN(C)c1ccc(/C=C/c2cc[n+](C)c3ccccc23)cc1", "values": [{"measurement": "IC50", "result": 23.3, "unit": "µM"}]}, {"smiles": "O=c1c2cc(F)ccc2sn1-c1ccccc1", "values": [{"measurement": "IC50", "result": 7.49, "unit": "µM"}]}, {"smiles": "COC(=O)c1cccc(-n2sc3ccccc3c2=O)c1", "values": [{"measurement": "IC50", "result": 14.8, "unit": "µM"}]}, {"smiles": "O=c1c2sc3ccccc3c2[nH]c(=S)n1CCN1CCOCC1", "values": [{"measurement": "IC50", "result": 5.15, "unit": "µM"}]}, {"smiles": "CCN1CCN(Cc2ccc(NC(=O)c3ccc(C)c(/C=C/c4cnc(Nc5cc(N6CCNCC6)nc(C)n5)cn4)c3)cc2C(F)(F)F)CC1", "values": [{"measurement": "IC50", "result": 72.7, "unit": "µM"}]}, {"smiles": "C[n+]1c(-c2ccc(C=NNC(=O)c3ccc(C(=O)NN=Cc4ccc(-c5cn6ccccc6[n+]5C)cc4)cc3)cc2)cn2ccccc21", "values": [{"measurement": "IC50", "result": 14.4, "unit": "µM"}]}, {"smiles": "CCN(CC)c1ccc(C(=C2C=CC(=[N+](CC)CC)C=C2)c2ccc(N(CC)CC)cc2)cc1", "values": [{"measurement": "IC50", "result": 35.1, "unit": "µM"}]}, {"smiles": "O=C1NC(=S)N(c2ccccc2)C(=O)/C1=C/c1ccco1", "values": [{"measurement": "IC50", "result": 10.2, "unit": "µM"}]}, {"smiles": "O=c1c2ccccc2sn1-c1ccc(Cl)cc1Cl", "values": [{"measurement": "IC50", "result": 4.22, "unit": "µM"}]}, {"smiles": "O=c1c2ccccc2sn1-c1ccc(F)cc1", "values": [{"measurement": "IC50", "result": 4.46, "unit": "µM"}]}, {"smiles": "O=c1c2ccccc2sn1-c1cccc(Cl)c1", "values": [{"measurement": "IC50", "result": 38.1, "unit": "µM"}]}, {"smiles": "O=C1C(SCCO)=C(SCCO)C(=O)c2ccccc21", "values": [{"measurement": "IC50", "result": 25.2, "unit": "µM"}]}, {"smiles": "Cn1ccc(=Nc2ccc(NC(=O)c3ccc(N=c4ccn(C)c5ccc([N+](=O)[O-])cc45)cc3)cc2)cc1", "values": [{"measurement": "IC50", "result": 14.2, "unit": "µM"}]}, {"smiles": "O=C(O)c1cccc(-n2sc3ccccc3c2=O)c1", "values": [{"measurement": "IC50", "result": 9.61, "unit": "µM"}]}, {"smiles": "O=c1c2ccccc2sn1-c1ccccc1F", "values": [{"measurement": "IC50", "result": 32.8, "unit": "µM"}]}, {"smiles": "O=c1c2cc(F)ccc2sn1-c1ccccc1Cl", "values": [{"measurement": "IC50", "result": 8.92, "unit": "µM"}]}, {"smiles": "COc1ccc(Nc2ccc3ccccc3c2)cc1", "values": [{"measurement": "IC50", "result": 5.93, "unit": "µM"}]}, {"smiles": "O=C1C=CC(=O)c2c(O)c(N3CCN(CCO)CC3)c(Cl)c(O)c21", "values": [{"measurement": "IC50", "result": 10.2, "unit": "µM"}]}, {"smiles": "Nc1n[nH]c(=S)n1/N=C1/C(=O)Nc2ccccc21", "values": [{"measurement": "IC50", "result": 14.6, "unit": "µM"}]}, {"smiles": "CN(C)c1nc(=NCc2cccs2)ss1", "values": [{"measurement": "IC50", "result": 18.5, "unit": "µM"}]}, {"smiles": "O=C(Nc1ccccc1Cl)/C(Cl)=C(\\Cl)S(=O)c1ccccc1", "note": "(stereo unspecified)", "values": [{"measurement": "IC50", "result": 12.6, "unit": "µM"}]}, {"smiles": "COc1ccc(-n2sc3ccc(F)cc3c2=O)cc1", "values": [{"measurement": "IC50", "result": 9.82, "unit": "µM"}]}, {"smiles": "O=C1C=CC(=O)c2c(O)c(N3CCN(CCOCCO)CC3)c(Br)c(O)c21", "values": [{"measurement": "IC50", "result": 31.4, "unit": "µM"}]}, {"smiles": "CN(C)c1ccc(C=c2c3cc(O)ccc3n3c2cc(-c2ccccc2)[n+]3C)cc1", "values": [{"measurement": "IC50", "result": 10.8, "unit": "µM"}]}, {"smiles": "O=C(O)C1CSC(c2ccco2)N1", "note": "(stereo unspecified)", "values": [{"measurement": "IC50", "result": 10.7, "unit": "µM"}]}, {"smiles": "COc1ccc(NC2CCCN(C(=O)C3(C)CCCCC3)C2)cc1", "note": "(stereo unspecified)", "values": [{"measurement": "IC50", "result": 7.34, "unit": "µM"}]}, {"smiles": "Cc1cc(N)c2cc(NC(=O)/C=C/c3ccccc3Cl)ccc2n1", "values": [{"measurement": "IC50", "result": 29.1, "unit": "µM"}]}, {"smiles": "O=C1C(=Cc2ccco2)CCC1=Cc1ccco1", "values": [{"measurement": "IC50", "result": 12.7, "unit": "µM"}]}, {"smiles": "Cc1ccc(-n2sc3cc(F)ccc3c2=O)c(C)c1", "values": [{"measurement": "IC50", "result": 6.71, "unit": "µM"}]}, {"smiles": "O=C1C=CC(=O)N1c1ccccc1N1C(=O)C=CC1=O", "values": [{"measurement": "IC50", "result": 22.1, "unit": "µM"}]}, {"smiles": "CN(C)c1ncc(C2=C(Cl)C(=O)C(N3CCCC3)=C(Cl)C2=O)s1", "values": [{"measurement": "inhibition", "result": "inactive"}]}, {"smiles": "O=C(O)c1cc(N2C(=O)C=CC2=O)cc(N2C(=O)C=CC2=O)c1", "values": [{"measurement": "IC50", "result": 24.4, "unit": "µM"}]}, {"smiles": "O=C(O)c1cc(N2N=C(C(F)(F)F)/C(=C/C=C/c3ccco3)C2=O)ccc1Cl", "values": [{"measurement": "inhibition", "result": "inactive"}]}, {"smiles": "O=c1c2ccc(F)cc2sn1-c1ccccc1", "values": [{"measurement": "IC50", "result": 9.12, "unit": "µM"}]}, {"smiles": "O=C1C(Cl)=C(NC(=O)c2ccccc2)C(=O)C(Cl)=C1NC(=O)c1ccccc1", "values": [{"measurement": "IC50", "result": 22.7, "unit": "µM"}]}, {"smiles": "CC1=NNC(=O)C1Br", "note": "(stereo unspecified)", "values": [{"measurement": "IC50", "result": 13.6, "unit": "µM"}]}, {"smiles": "Cc1c(Cl)sn(-c2ccc(Cl)cc2)c1=O", "values": [{"measurement": "IC50", "result": 12.9, "unit": "µM"}]}]}
